Source: US20050215635A1, “Diarylheptanoid compounds and uses thereof” (priority 2004, published 2005)

Assays:
[1] = Radical-scavenging activity by DPPH; conditions: for IC50: DPPH 63.4 μM in methanol, absorbance at 515 nm, steady state, read-out: IC50 (μM) of Diarylheptanoids in Scavenging DPPH Free Radicals; for free radical scavenging, DPPH data (in words): DPPH assay
Text: In this example, the 2,2-diphenyl-1-picrylhydrazyl (DPPH) method was used to explore the capacity of five isolated compounds of the invention to act as free radical scavengers. The DPPH assay has been extensively used to test the free radical scavenging ability of various chemicals (Brand-williams, W. et al., Wiss. Technol. 1995, 28, 25-30; Dinis, T. C. et al., Arch. Biochem. Biophys. 1994, 315, 161-169.)
This method was adapted from that of Brand-Williams, et al. (Brand-williams, W.; Cuvelier, M. E.; Berset, C. Lebensm. Wiss. Technol. 1995, 28, 25-30.). At least seven different concentrations were prepared for each purified compound. 25 μl pure compound solution and 975 μL DPPH solution (63.4 μM) were mixed together and left in the dark for 30 min. Each sample was triplicated and the values were averaged. The absorbance of the samples was measured at 515 nm against methanol solution without DPPH as the blank reference. The absorbance was measured every 30 min until the reaction reached a plateau. The reaction kinetics were then plotted using the above data and the percentage of DPPH remaining at the steady state was obtained. IC50 values were determined by extrapolation from linear regression analysis.
DPPH, 2,2-Diphenyl-1-picrylhydrazyl (DPPH.), is a stable radical in methanol solution. In its radical form, DPPH. absorbs at 515 nm, but the absorption ceases upon reduction by an antioxidant (AH) or a radical species (R.) (Brand-williams, W.; Cuvelier, M. E.; Berset, C. Lebensm. Wiss. Technol. 1995, 28, 25-30.). The concentration of tested chemicals needed to decrease the initial DPPH. concentration by 50% (IC50) is a parameter widely used to measure the antioxidant potential (Kanner, J.; Frankel, E.; German, B.; Kinsella, J. e. J. Agric. Food Chem. 1994, 42, 64-69, Vinson, J. A.; Dabbagh, Y. A.; Serry, M. M. J. Agric. Food Chem. 1995a, 43,2800-2802.). The lower the IC50, the higher the free radical scavenging power.

[2] = system: Du-145 prostate tumor cells; assay: MTT-microculture tetrazolium cell viability assay / induction of apoptosis in Du-145; assay type: cell-based; conditions: for IC50: Homo sapiens, Du-145 prostate tumor cells, MTT, 72 hours incubation, drug concentration giving 50% inhibition of growth, read-out: IC50 (μM), Effects of Diarylheptanoids on Inducing Apoptosis in DU-145 Cancer Cell Line; for activity in bioassay: inducing apoptosis in Du-145 cancer cell line (in words): bioassay-directed fractionation of Alpinia officinarum
Method: The rhizomes of Alpinia officinarum were purchased from Nuherbs Co. (Oakland, Calif.). Du-145 prostate tumor cells were obtained from the American Type Culture Collection (ATCC). Cells were maintained at 37° C. in an atmosphere of 5% CO2 and grown in Roswell Park Memorial Institute (RPMI) media 1640 (GIBCO/BRL) with 10% fetal bovine serum and with 5% penicillin and streptomycin.
The powdered roots of Alpinia officinarum were extracted with methanol and concentrated under vacuum using rotary evaporation. The dried residue was then partitioned with hexanes, ethyl acetate and 1-butanol successively. The three extracts were subjected to bioassays.
The dried ethyl acetate extract was then chromatographed on a normal phase silica gel column (2.5×30 cm) to perform bioassay-directed fractionation. The extract was first dissolved in methanol and loaded onto the column packing material. The prepared extract was then placed on top of the column and elution was performed using a solvent mixture of chloroform/methanol with an increasing amount of methanol (30:1, 20:1, 10:1, 5:1, 0:100; each 1000 mL). Successive fractions were collected and tested for biological activity. […] This fraction was then rechromatographed on a semipreparative Zorbax Rx-C18 reversed phase HPLC column (9.4 mm×240 mm, 5 μm) purchased from MacMod Analytical (Chadds Ford, Pa.). Compounds were eluted by an isocratic solvent system: 55% A, water with 0.05% formic acid (FA); 45% B, ACN (v/v) at a flow rate of 4 mL/min. The wavelength monitored was 205 nm. Successive fractions (1-3) were collected and sent for biological testing again.
Cellular growth in the presence or absence of experimental agents was determined using the modified method as previously described MTT-microculture tetrazolium assay (World Health Organization (ED.), Medicinal Plants in China, WHO Regional Publications, 1989, 21). Briefly, rapidly growing cells were harvested, counted, and inoculated at the appropriate concentrations (100 μL volume) into 96-well micro-titer plates using a multichannel pipet. After 24 hours, AO-1 to AO-5 were applied in different concentrations to triplicate culture wells, and cultures were incubated for 72 hours at 37° C. MTT ( Sigma, St. Louis, Mo.) was prepared at 2 mg/ml in Phosphate buffered saline (PBS) and 50 μL were added to microculture wells. After 4 hour incubation at 37° C., […] were removed from each well, and 150 μL of 100% DMSO were added to solubilize the MTT-formazan product. After thorough mixing with a mechanical plate mixer, absorbence was measured at 570 nm using a Dynatech microplate reader. […] This assay is based on the reduction of MTT tetrazolium salt to a formazan product by the metabolic activity of live cells and which was measured in a multiwell scanning spectrophotometer. Cell line growth and growth inhibition were expressed in terms of mean absorbance units and following the substraction of mean background absorbance.

Row | SMILES | IC50 [1] | free radical scavenging, DPPH data (in words) [1] | IC50 [2] | activity in bioassay: inducing apoptosis in Du-145 cancer cell line (in words) [2]
1 | COc1cc(CCC(O)CC(=O)CCc2ccccc2)ccc1O (stereo not shown) [AO-1, 5-Hydroxy-7-(4″-hydroxy-3″methoxyphenyl)-1-phenyl-3-heptanone] | 11.4 µM | very good free radical scavengers | 100 µM | biological activity to some level
2 | COc1cc(CCC(CC(=O)CCc2ccccc2)OC)ccc1O (stereo not shown) [AO-2, 5-methoxy-7-(4″-hydroxy-3″methoxyphenyl)-1-phenyl-3-heptanone] | 12.7 µM | very good free radical scavengers | 88 µM | some activity
3 | O=C(/C=C/CCc1ccc(O)cc1)CCc1ccccc1 [AO-3, 7-(4″-hydroxyphenyl)-1-phenyl-hept-4-en-3-one] | > 1000 µM |  | 20 µM | some activity
4 | O=C(/C=C/CCc1ccccc1)CCc1ccccc1 [AO-5, 1,7-diphenylhept-4-en-3-one] | > 5000 µM |  | 32 µM | 
